From patent publication US9796711B2, “Substituted pyrazolo[3,4-b]pyridin-6-carboxylic acids and method of use” (AbbVie S.àr.l., priority 2015, dated 2017)

How the values were obtained:
ΔF508-CFTR [1] = biological target: T1, ΔF508-CFTR (Homo sapiens, UniProt P13569, DEL508-508); assay: CFTR cell surface levels using HRP-tagged ΔF508-CFTR expressing CFBE cells, in the presence of a co-corrector; type: cell-based; conditions: HRP-tagged ΔF508-CFTR expressing CFBE cells, in the presence of 3 μM co-corrector; for EC50: read-out: EC50
T1 construct: host or cells: CFBE41o-, doxycycline-inducible
In short: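 Cells were seeded with 0.5 μg/mL doxycycline and held 68 h at 37 °C. Test compounds plus 3 μM co-corrector (final 0.1% DMSO) were then added for 20 h at 33 °C. Washed cells received HRP substrate, and luminescence was normalized between DMSO and 3 μM co-corrector controls.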

ΔF508-CFTR [2] = biological target: T1, ΔF508-CFTR; assay: CFTR cell surface levels using HRP-tagged ΔF508-CFTR expressing CFBE cells, intrinsic corrector capacity; type: cell-based; conditions: HRP-tagged ΔF508-CFTR CFBE41o- cells, compounds alone (intrinsic corrector capacity), 20 hours at 33° C.; for % Activation: positive control 3 μM corrector; for EC50: read-out: EC50
In short: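 Here the cells express ΔF508-CFTR with horseradish peroxidase inserted in extracellular loop 4, so only rescued channel at the surface gives luminescent signal. Compounds act on their own, 20 h at the reduced temperature of 33 °C; values are percent activity relative to DMSO and a 3 μM corrector.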

T1 sequence (P13569 with tags, fused parts or gaps DEL508-508): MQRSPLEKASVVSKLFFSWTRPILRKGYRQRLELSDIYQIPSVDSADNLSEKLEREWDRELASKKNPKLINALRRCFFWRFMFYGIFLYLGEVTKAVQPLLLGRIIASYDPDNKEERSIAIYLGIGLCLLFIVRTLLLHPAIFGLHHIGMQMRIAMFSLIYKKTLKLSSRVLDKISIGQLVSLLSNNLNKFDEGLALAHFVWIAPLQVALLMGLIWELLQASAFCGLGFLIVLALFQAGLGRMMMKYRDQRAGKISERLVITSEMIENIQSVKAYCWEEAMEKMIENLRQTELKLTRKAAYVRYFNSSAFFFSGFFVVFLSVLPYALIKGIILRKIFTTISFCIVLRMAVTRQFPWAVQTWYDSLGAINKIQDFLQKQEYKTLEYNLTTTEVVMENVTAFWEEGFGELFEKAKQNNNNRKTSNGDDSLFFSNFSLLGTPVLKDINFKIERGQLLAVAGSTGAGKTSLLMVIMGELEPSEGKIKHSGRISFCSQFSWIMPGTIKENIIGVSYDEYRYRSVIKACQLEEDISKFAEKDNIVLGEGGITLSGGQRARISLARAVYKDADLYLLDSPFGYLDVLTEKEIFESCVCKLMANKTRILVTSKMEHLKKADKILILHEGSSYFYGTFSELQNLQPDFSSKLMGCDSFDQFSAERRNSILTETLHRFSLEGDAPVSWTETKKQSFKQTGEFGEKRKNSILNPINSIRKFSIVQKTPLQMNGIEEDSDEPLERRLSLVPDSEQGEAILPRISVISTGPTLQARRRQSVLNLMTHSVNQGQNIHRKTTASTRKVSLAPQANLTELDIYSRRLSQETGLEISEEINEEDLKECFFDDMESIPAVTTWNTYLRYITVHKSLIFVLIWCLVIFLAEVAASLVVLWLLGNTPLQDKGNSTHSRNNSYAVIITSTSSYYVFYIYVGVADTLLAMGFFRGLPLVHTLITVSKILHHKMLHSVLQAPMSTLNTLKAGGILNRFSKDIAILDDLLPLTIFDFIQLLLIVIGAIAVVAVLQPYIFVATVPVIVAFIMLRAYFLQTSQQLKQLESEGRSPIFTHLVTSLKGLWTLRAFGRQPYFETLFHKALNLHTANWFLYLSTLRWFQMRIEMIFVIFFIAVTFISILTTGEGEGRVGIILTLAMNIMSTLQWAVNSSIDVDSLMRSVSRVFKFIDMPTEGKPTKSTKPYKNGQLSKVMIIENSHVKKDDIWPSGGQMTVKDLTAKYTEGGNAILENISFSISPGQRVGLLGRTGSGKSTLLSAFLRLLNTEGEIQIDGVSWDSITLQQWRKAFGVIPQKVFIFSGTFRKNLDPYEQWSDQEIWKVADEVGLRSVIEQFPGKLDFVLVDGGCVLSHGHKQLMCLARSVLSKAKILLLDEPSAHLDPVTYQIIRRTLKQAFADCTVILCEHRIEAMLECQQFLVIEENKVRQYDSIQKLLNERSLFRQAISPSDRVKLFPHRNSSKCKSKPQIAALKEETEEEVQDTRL

SMILES | % Activation (ΔF508-CFTR [1]) | EC50 (ΔF508-CFTR [1]) | % Activation (ΔF508-CFTR [2]) | EC50 (ΔF508-CFTR [2])
Cc1nn(-c2ccccc2)c2nc(C(=O)O)cc(-c3ccc(N4CC5CCC(C4)O5)cc3)c12 [compound 134, 3-methyl-4-[4-(8-oxa-3-azabicyclo[3.2.1]octan-3-yl)phenyl]-1-phenyl-1H-pyrazolo[3,4-b]pyridine-6-carboxylic acid] | 362.2% | 556 nM | 153.25% | 982 nM
Cc1nn(-c2ccccc2)c2nc(C(=O)O)cc(-c3ccc(N4CCC4)cc3)c12 [compound 135, 4-[4-(azetidin-1-yl)phenyl]-3-methyl-1-phenyl-1H-pyrazolo[3,4-b]pyridine-6-carboxylic acid] | 355.55% | 1460 nM | 165.1% | 2200 nM
Cc1nn(-c2ccccc2)c2nc(C(=O)O)cc(N3CCN(CC#N)CC3)c12 [compound 136, 4[4-(cyanomethyl)piperazin-1-yl]-3-methyl-1-phenyl-1H-pyrazolo[3,4-b]pyridine-6-carboxylic acid] | 189.95% | 3340 nM | 40.405% | 3340 nM
Cc1nn(-c2ccccc2)c2nc(C(=O)O)cc(N3CCC(O)CC3)c12 [compound 137, 4-(4-hydroxypiperidin-1-yl)-3-methyl-1-phenyl-1H-pyrazolo[3,4-b]pyridine-6-carboxylic acid] | 158.05% | 3340 nM | 27.985% | > 10000 nM
CC(=O)N1CCC(c2cc(C(=O)O)nc3c2c(C)nn3-c2ccccc2)CC1 [compound 138, 4-(1-acetylpiperidin-4-yl)-3-methyl-1-phenyl-1H-pyrazolo[3,4-b]pyridine-6-carboxylic acid] | 133.3% | > 10000 nM | 12.11% | > 10000 nM
Cc1nn(-c2ccccc2)c2nc(C(=O)O)cc(C3CCN(CC#N)CC3)c12 [compound 139, 4-[1-(cyanomethyl)piperidin-4-yl]-3-methyl-1-phenyl-1H-pyrazolo[3,4-b]pyridine-6-carboxylic acid] | 104.1% | > 10000 nM | −0.041% | > 10000 nM
Cc1nn(-c2ccccc2)c2nc(C(=O)O)cc(-c3ccc(N(C)C4COC4)cc3)c12 [compound 140, 3-methyl-4-{4-[methyl(oxetan-3-yl)amino]phenyl}-1-phenyl-1H-pyrazolo[3,4-b]pyridine-6-carboxylic acid] | 362.05% | 941 nM | 178% | 1500 nM
CC(C)c1nn(C2CCN(CC#N)C2)c2nc(C(=O)O)cc(-c3ccc(N4CCOCC4)cc3)c12 (stereo not shown) [compound 141, 1-[1-(cyanomethyl)pyrrolidin-3-yl]-4-[4-(morpholin-4-yl)phenyl]-3-(propan-2-yl)-1H-pyrazolo[3,4-b]pyridine-6-carboxylic acid] | 121.5% | > 10000 nM | 5.399% | > 10000 nM
COC(=O)N1CCC(n2nc(C(C)C)c3c(-c4ccc(N5CCOCC5)cc4)cc(C(=O)O)nc32)C1 (stereo not shown) [compound 142, 1-[1-(methoxycarbonyl)pyrrolidin-3-yl]-4-[4-(morpholin-4-yl)phenyl]-3-(propan-2-yl)-1H-pyrazolo[3,4-b]pyridine-6-carboxylic acid] | 135.2% | 5550 nM | 17.605% | > 10000 nM
COC1CCN(c2cc(C(=O)O)nc3c2c(C)nn3-c2ccccc2)CC1 [compound 143, 4-(4-methoxypiperidin-1-yl)-3-methyl-1-phenyl-1H-pyrazolo[3,4-b]pyridine-6-carboxylic acid] | 246.8% | 2420 nM | 109.45% | 2290 nM
Cc1nn(-c2ccccc2)c2nc(C(=O)O)cc(-c3ccc(NC4CCOCC4)cc3)c12 [compound 145, 3-methyl-4-{4-[(oxan-4-yl)amino]phenyl}-1-phenyl-1H-pyrazolo[3,4-b]pyridine-6-carboxylic acid] | 368.6% | 850 nM | 190.2% | 1430 nM
Cc1nn(-c2ccccc2)c2nc(C(=O)O)cc(N3CCN(S(C)(=O)=O)CC3)c12 [compound 146, 4-[4-(methanesulfonyl)piperazin-1-yl]-3-methyl-1-phenyl-1H-pyrazolo[3,4-b]pyridine-6-carboxylic acid] | 134.9% | > 10000 nM | 8.92% | > 10000 nM
CN(C)c1ncc(-c2cc(C(=O)O)nc3c2c(C(C)(C)C)nn3C2CCCCC2)cn1 [compound 147, 3-tert-butyl-1-cyclohexyl-4-[2-(dimethylamino)pyrimidin-5-yl]-1H-pyrazolo[3,4-b]pyridine-6-carboxylic acid] | 318.9% | 831 nM | 114.65% | 1050 nM
N#CCN1CC(c2nn(-c3ccccc3)c3nc(C(=O)O)cc(-c4ccc(N5CCOCC5)cc4)c23)C1 [compound 148, 3-[1-(cyanomethyl)azetidin-3-yl]-4-[4-(morpholin-4-yl)phenyl]-1-phenyl-1H-pyrazolo[3,4-b]pyridine-6-carboxylic acid] | 238.75% | 3340 nM | 79.64% | 3340 nM
CC(C)(C)c1nn(C2CCCCC2)c2nc(C(=O)O)cc(-c3cnc(N4CCOCC4)nc3)c12 [compound 149, 3-tert-butyl-1-cyclohexyl-4-[2-(morpholin-4-yl)pyrimidin-5-yl]-1H-pyrazolo[3,4-b]pyridine-6-carboxylic acid] | 296% | 449 nM | 112.95% | 653 nM
Cc1nn(-c2ccccc2)c2nc(C(=O)O)cc(N3CCCCC3=O)c12 [compound 150, 3-methyl-4-(2-oxopiperidin-1-yl)-1-phenyl-1H-pyrazolo[3,4-b]pyridine-6-carboxylic acid] | 115.3% | > 10000 nM | 6.341% | > 10000 nM
Cc1nn(-c2ccccc2)c2nc(C(=O)O)cc(OCC3CCCCC3)c12 [compound 152, 4-(cyclohexylmethoxy)-3-methyl-1-phenyl-1H-pyrazolo[3,4-b]pyridine-6-carboxylic acid] | 253.1% | 2090 nM | 75.36% | 2630 nM
Cc1nn(-c2ccccc2)c2nc(C(=O)O)cc(-c3ccc(N4CCC(O)C4)cc3)c12 (stereo not shown) [compound 153, 4-[4-(3-hydroxypyrrolidin-1-yl)phenyl]-3-methyl-1-phenyl-1H-pyrazolo[3,4-b]pyridine-6-carboxylic acid] | 386.85% | 1200 nM | 198.45% | 1530 nM
Cc1nn(-c2ccccc2)c2nc(C(=O)O)cc(-c3ccc(N4CCC5(CC4)COC5)cc3)c12 [compound 154, 3-methyl-4-[4-(2-oxa-7-azaspiro[3.5]nonan-7-yl)phenyl]-1-phenyl-1H-pyrazolo[3,4-b]pyridine-6-carboxylic acid] | 353.7% | 748 nM | 153.9% | 918 nM
